{"source": "patent US9156845B2", "about": "“4-(substituted amino)-7H-pyrrolo[2,3-d] pyrimidines as LRRK2 inhibitors” (Pfizer Inc., priority 2012, dated 2015)", "assay_in_all_cases": "ActivX kinase probe assay (human PBMC)", "format_in_all_cases": "binding", "key": {"PCTAIRE2, PCTAIRE3": {"system": "PCTAIRE2, PCTAIRE3"}, "ZAP70": {"target": "ZAP70 (Homo sapiens (Human), UniProt P43403)", "conditions": "ZAP70, read-out: percent inhibition"}, "AMPKa1": {"target": "AMPKa1 (Homo sapiens (Human), UniProt Q13131)", "sequence (Q13131 whole entry)": "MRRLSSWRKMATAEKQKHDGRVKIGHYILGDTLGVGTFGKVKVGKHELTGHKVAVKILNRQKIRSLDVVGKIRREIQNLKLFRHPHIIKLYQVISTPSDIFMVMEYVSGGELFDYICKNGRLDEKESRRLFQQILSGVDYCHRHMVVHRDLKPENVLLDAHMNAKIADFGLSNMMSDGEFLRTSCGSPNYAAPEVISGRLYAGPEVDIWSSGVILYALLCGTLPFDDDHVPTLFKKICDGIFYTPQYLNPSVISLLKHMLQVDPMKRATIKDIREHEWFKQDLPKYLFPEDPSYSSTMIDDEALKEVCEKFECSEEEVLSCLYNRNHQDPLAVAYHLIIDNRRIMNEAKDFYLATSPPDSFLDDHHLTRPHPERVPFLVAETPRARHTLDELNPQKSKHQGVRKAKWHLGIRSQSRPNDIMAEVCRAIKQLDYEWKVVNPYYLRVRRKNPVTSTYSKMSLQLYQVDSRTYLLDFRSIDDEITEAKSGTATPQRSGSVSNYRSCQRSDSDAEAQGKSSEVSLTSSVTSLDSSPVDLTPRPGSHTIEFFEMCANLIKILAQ", "sequence (Q9Y478 2-270 partner)": "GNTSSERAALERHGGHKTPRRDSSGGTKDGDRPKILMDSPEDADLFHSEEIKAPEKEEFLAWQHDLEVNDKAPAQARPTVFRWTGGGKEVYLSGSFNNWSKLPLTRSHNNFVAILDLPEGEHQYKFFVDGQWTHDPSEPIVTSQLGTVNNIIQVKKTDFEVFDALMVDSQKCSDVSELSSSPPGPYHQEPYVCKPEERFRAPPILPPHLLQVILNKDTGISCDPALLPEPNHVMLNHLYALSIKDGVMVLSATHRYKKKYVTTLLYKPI", "sequence (P54619 whole entry partner)": "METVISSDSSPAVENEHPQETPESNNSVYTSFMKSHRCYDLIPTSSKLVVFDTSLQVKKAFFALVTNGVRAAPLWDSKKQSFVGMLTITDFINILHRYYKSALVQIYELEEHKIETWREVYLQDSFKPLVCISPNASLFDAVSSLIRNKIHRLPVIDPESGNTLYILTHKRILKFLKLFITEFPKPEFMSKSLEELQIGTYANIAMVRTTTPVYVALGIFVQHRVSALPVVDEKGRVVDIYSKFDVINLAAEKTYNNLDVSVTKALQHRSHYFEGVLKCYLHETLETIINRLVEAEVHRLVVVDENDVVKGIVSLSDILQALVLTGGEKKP", "conditions": "AMPKa1, read-out: percent inhibition"}, "LATS2": {"target": "LATS2 (Homo sapiens (Human), UniProt Q9NRM7)", "conditions": "LATS2, read-out: percent inhibition"}, "DGKA": {"target": "DGKA (Homo sapiens (Human), UniProt P23743)", "conditions": "DGKA, read-out: percent inhibition"}, "PIP4K2A": {"target": "PIP4K2A (Homo sapiens (Human), UniProt P48426)", "conditions": "PIP4K2A, read-out: percent inhibition"}, "CaMK2d": {"target": "CaMK2d (Homo sapiens (Human), UniProt Q13557)", "conditions": "CaMK2d, read-out: percent inhibition"}, "BRAF": {"target": "BRAF (Homo sapiens (Human), UniProt P15056)", "conditions": "BRAF, read-out: percent inhibition"}, "IRE1": {"target": "IRE1 (Homo sapiens (Human), UniProt O75460)", "conditions": "IRE1, read-out: percent inhibition"}, "p70S6K": {"target": "p70S6K (Homo sapiens (Human), UniProt P23443)", "sequence (P23443 whole entry)": "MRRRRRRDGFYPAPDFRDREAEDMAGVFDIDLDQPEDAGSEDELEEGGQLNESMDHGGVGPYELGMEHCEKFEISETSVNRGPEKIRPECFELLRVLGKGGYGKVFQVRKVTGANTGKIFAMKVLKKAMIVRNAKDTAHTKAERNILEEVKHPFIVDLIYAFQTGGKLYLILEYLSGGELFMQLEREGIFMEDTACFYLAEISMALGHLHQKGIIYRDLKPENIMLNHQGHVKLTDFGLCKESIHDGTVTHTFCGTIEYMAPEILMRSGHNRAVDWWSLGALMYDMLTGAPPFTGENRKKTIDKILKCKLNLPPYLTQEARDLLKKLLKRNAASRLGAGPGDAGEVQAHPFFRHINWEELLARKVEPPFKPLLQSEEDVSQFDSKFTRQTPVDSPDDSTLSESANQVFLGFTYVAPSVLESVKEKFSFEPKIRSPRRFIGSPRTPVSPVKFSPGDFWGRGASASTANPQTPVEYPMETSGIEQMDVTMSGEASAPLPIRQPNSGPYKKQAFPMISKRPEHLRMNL", "conditions": "p70S6K, read-out: percent inhibition"}, "p70S6K, p70S6Kb": {"system": "p70S6K, p70S6Kb"}, "KSR1, KSR2": {"system": "KSR1, KSR2"}, "PKR": {"target": "PKR (Homo sapiens (Human), UniProt P19525)", "sequence (P19525 whole entry)": "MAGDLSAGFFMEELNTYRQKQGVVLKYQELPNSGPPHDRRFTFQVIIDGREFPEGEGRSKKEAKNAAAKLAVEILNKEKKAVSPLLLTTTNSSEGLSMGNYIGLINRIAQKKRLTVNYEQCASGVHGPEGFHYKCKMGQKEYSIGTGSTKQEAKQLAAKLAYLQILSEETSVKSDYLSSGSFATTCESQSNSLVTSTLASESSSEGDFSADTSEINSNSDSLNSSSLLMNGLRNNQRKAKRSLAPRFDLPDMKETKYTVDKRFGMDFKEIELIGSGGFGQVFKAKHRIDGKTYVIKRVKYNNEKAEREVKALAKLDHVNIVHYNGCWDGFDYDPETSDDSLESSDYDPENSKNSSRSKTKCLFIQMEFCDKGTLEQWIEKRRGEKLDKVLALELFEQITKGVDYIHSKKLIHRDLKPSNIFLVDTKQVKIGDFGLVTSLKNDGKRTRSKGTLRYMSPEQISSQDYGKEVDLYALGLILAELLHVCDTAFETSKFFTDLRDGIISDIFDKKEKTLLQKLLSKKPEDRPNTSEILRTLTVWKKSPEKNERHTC", "conditions": "PKR, read-out: percent inhibition"}, "OSR1": {"target": "OSR1 (Homo sapiens (Human), UniProt O95747)", "conditions": "OSR1, read-out: percent inhibition"}, "MAP3K1": {"target": "MAP3K1 (Homo sapiens (Human), UniProt Q13233)", "conditions": "MAP3K1, read-out: percent inhibition"}, "ABL, ARG": {"system": "ABL, ARG"}, "JAK1": {"target": "JAK1 (Homo sapiens (Human), UniProt P23458)", "sequence (P23458 whole entry)": "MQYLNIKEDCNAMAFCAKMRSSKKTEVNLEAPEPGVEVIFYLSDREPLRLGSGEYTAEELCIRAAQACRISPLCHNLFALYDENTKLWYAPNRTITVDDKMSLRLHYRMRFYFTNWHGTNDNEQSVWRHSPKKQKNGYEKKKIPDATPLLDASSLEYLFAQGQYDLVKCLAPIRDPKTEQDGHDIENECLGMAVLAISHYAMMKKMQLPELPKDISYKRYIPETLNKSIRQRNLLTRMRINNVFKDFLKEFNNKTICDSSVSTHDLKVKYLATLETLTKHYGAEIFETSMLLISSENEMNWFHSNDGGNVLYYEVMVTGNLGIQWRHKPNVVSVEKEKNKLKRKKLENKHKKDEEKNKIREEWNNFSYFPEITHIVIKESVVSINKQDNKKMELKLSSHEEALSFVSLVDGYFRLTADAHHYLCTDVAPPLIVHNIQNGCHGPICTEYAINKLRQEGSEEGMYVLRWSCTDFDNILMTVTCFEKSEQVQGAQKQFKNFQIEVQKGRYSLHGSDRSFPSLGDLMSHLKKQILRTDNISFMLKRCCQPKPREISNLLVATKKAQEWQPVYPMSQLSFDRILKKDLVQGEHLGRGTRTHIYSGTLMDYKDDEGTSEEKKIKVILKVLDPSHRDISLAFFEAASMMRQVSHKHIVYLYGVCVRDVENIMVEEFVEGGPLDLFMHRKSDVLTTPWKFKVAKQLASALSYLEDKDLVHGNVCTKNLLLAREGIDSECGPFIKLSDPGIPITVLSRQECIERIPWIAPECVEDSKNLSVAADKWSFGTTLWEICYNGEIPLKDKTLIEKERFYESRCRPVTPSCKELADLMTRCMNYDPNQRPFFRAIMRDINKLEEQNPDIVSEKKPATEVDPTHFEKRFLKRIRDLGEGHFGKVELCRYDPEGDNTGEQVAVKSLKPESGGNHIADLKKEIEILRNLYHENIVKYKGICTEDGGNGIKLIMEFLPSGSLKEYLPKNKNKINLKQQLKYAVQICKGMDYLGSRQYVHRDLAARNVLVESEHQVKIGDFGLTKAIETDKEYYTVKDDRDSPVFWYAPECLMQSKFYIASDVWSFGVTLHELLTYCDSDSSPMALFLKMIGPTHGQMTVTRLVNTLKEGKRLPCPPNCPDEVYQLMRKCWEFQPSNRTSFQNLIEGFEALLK", "conditions": "JAK1, read-out: percent inhibition"}, "EphA1": {"target": "EphA1 (Homo sapiens (Human), UniProt P21709)", "sequence (P21709 26-976)": "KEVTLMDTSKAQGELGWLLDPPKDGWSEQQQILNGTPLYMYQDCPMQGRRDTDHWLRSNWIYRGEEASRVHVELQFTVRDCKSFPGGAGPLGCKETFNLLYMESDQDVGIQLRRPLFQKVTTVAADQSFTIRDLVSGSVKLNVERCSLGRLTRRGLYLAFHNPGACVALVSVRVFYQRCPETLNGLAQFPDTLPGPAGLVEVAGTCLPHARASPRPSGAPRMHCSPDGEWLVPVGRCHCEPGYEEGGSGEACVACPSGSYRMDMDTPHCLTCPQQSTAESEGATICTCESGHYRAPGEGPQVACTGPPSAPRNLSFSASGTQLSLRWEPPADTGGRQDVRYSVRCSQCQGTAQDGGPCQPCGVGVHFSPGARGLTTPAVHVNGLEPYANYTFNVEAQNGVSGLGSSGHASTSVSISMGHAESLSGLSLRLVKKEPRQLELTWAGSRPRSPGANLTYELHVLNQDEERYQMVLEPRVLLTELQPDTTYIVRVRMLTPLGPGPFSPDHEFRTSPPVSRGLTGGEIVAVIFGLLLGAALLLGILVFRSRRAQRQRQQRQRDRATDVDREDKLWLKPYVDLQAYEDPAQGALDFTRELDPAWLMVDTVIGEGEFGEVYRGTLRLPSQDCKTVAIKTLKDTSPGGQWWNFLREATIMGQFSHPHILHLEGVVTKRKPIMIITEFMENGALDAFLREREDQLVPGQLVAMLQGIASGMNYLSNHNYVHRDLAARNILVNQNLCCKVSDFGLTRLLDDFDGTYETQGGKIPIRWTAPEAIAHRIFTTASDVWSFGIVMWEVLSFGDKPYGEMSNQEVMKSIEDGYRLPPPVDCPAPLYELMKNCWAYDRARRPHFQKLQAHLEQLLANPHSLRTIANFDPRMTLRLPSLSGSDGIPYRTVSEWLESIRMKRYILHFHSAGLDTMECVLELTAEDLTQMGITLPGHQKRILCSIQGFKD", "conditions": "EphA1, read-out: percent inhibition"}, "MSK1 domain1": {"target": "MSK1 domain1 (Homo sapiens (Human), UniProt O75582)", "conditions": "MSK1 domain1, read-out: percent inhibition"}, "MARK3": {"target": "MARK3 (Homo sapiens (Human), UniProt P27448)", "conditions": "MARK3, read-out: percent inhibition"}, "FGR": {"target": "FGR (Homo sapiens (Human), UniProt P09769)", "conditions": "FGR, read-out: percent inhibition"}, "CaMK2g": {"target": "CaMK2g (Homo sapiens (Human), UniProt Q13555)", "sequence (Q13555 whole entry)": "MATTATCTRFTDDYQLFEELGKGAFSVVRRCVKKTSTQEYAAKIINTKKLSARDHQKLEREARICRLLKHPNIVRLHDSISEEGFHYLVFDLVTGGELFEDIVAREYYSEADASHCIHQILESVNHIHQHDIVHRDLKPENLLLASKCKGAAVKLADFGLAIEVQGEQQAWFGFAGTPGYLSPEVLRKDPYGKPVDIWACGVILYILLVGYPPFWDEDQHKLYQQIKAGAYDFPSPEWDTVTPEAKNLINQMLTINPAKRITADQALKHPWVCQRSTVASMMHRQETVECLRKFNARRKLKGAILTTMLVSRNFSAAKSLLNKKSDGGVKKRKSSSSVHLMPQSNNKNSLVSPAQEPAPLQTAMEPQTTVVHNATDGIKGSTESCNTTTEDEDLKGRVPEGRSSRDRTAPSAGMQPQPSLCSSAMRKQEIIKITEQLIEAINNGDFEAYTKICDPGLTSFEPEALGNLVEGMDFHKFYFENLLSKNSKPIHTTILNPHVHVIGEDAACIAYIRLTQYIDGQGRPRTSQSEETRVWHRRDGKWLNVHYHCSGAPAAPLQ", "conditions": "CaMK2g, read-out: percent inhibition"}, "NEK6, NEK7": {"system": "NEK6, NEK7"}, "JAK2 domain2": {"target": "JAK2 domain2 (Homo sapiens (Human), UniProt O60674)", "conditions": "JAK2 domain2, read-out: percent inhibition"}, "p38d, p38g": {"system": "p38d, p38g"}, "AKT2, AKT3": {"system": "AKT2, AKT3"}, "Erk5": {"target": "Erk5 (Homo sapiens (Human), UniProt Q13164)", "conditions": "Erk5, read-out: percent inhibition"}, "ULK3": {"target": "ULK3 (Homo sapiens (Human), UniProt Q6PHR2)", "conditions": "ULK3, read-out: percent inhibition"}, "GCN2": {"target": "GCN2 (Homo sapiens (Human), UniProt Q9P2K8)", "conditions": "GCN2, read-out: percent inhibition"}, "SGK3": {"target": "SGK3 (Homo sapiens (Human), UniProt Q96BR1)", "conditions": "SGK3, read-out: percent inhibition"}, "STLK5": {"target": "STLK5 (Homo sapiens (Human), UniProt Q7RTN6)", "conditions": "STLK5, read-out: percent inhibition"}, "AMPKa1, AMPKa2": {"system": "AMPKa1, AMPKa2"}, "GSK3A": {"target": "GSK3A (Homo sapiens (Human), UniProt P49840)", "conditions": "GSK3A, read-out: percent inhibition"}, "PIK3CD": {"target": "PIK3CD (Homo sapiens (Human), UniProt O00329)", "conditions": "PIK3CD, read-out: percent inhibition"}, "MAST3": {"target": "MAST3 (Homo sapiens (Human), UniProt O60307)", "conditions": "MAST3, read-out: percent inhibition"}, "PYK2": {"target": "PYK2 (Homo sapiens (Human), UniProt Q14289)", "conditions": "PYK2, read-out: percent inhibition"}}}
{"molecule": "Cn1cc(-c2c[nH]c3ncnc(N4CCOCC4)c23)cn1", "note": "[Example 1, 5-(1-Methyl-1H-pyrazol-4-yl)-4-(morpholin-4-yl)-7H-pyrrolo[2,3-d]pyrimidine]", "values": [{"measurement": "percent inhibition", "setting": "PCTAIRE2, PCTAIRE3; 0.1 μM", "result": 7.5, "unit": "%"}, {"measurement": "percent inhibition", "setting": "PCTAIRE2, PCTAIRE3; 1 μM", "result": "−2.5", "unit": "%"}, {"measurement": "inhibition at 0.1 µM", "setting": "ZAP70; 0.1 μM", "result": -23.2, "unit": "%"}, {"measurement": "inhibition at 1 µM", "setting": "ZAP70; 1 μM", "result": 3.1, "unit": "%"}, {"measurement": "inhibition at 0.1 µM", "setting": "AMPKa1; 0.1 μM", "result": 1.5, "unit": "%"}, {"measurement": "inhibition at 1 µM", "setting": "AMPKa1; 1 μM", "result": 27, "unit": "%"}, {"measurement": "inhibition at 0.1 µM", "setting": "LATS2; 0.1 μM", "result": 21.2, "unit": "%"}, {"measurement": "inhibition at 1 µM", "setting": "LATS2; 1 μM", "result": 11, "unit": "%"}, {"measurement": "inhibition at 0.1 µM", "setting": "DGKA; 0.1 μM", "result": -21, "unit": "%"}, {"measurement": "inhibition at 1 µM", "setting": "DGKA; 1 μM", "result": -16.6, "unit": "%"}, {"measurement": "inhibition at 0.1 µM", "setting": "PIP4K2A; 0.1 μM", "result": 12.1, "unit": "%"}, {"measurement": "inhibition at 1 µM", "setting": "PIP4K2A; 1 μM", "result": 6.8, "unit": "%"}, {"measurement": "inhibition at 0.1 µM", "setting": "CaMK2d; 0.1 μM", "result": -45.3, "unit": "%"}, {"measurement": "inhibition at 1 µM", "setting": "CaMK2d; 1 μM", "result": -38.1, "unit": "%"}, {"measurement": "inhibition at 0.1 µM", "setting": "BRAF; 0.1 μM", "result": -6.5, "unit": "%"}, {"measurement": "inhibition at 1 µM", "setting": "BRAF; 1 μM", "result": -51.5, "unit": "%"}, {"measurement": "inhibition at 0.1 µM", "setting": "IRE1; 0.1 μM", "result": -1.3, "unit": "%"}, {"measurement": "inhibition at 1 µM", "setting": "IRE1; 1 μM", "result": -8, "unit": "%"}, {"measurement": "inhibition at 0.1 µM", "setting": "p70S6K; 0.1 μM", "result": 23, "unit": "%"}, {"measurement": "inhibition at 1 µM", "setting": "p70S6K; 1 μM", "result": 18.9, "unit": "%"}, {"measurement": "percent inhibition", "setting": "p70S6K, p70S6Kb; 0.1 μM", "result": 9.4, "unit": "%"}, {"measurement": "percent inhibition", "setting": "p70S6K, p70S6Kb; 1 μM", "result": "−3.5", "unit": "%"}, {"measurement": "percent inhibition", "setting": "KSR1, KSR2; 0.1 μM", "result": 1.5, "unit": "%"}, {"measurement": "percent inhibition", "setting": "KSR1, KSR2; 1 μM", "result": "−14", "unit": "%"}, {"measurement": "inhibition at 0.1 µM", "setting": "PKR; 0.1 μM", "result": -4.3, "unit": "%"}, {"measurement": "inhibition at 1 µM", "setting": "PKR; 1 μM", "result": -17.3, "unit": "%"}, {"measurement": "inhibition at 0.1 µM", "setting": "OSR1; 0.1 μM", "result": -7.8, "unit": "%"}, {"measurement": "inhibition at 1 µM", "setting": "OSR1; 1 μM", "result": -4, "unit": "%"}, {"measurement": "inhibition at 0.1 µM", "setting": "MAP3K1; 0.1 μM", "result": -9.4, "unit": "%"}, {"measurement": "inhibition at 1 µM", "setting": "MAP3K1; 1 μM", "result": 11.9, "unit": "%"}, {"measurement": "percent inhibition", "setting": "ABL, ARG; 0.1 μM", "result": 25.8, "unit": "%"}, {"measurement": "percent inhibition", "setting": "ABL, ARG; 1 μM", "result": 22.5, "unit": "%"}, {"measurement": "inhibition at 0.1 µM", "setting": "JAK1; 0.1 μM", "result": 15, "unit": "%"}, {"measurement": "inhibition at 1 µM", "setting": "JAK1; 1 μM", "result": 54.2, "unit": "%"}, {"measurement": "inhibition at 0.1 µM", "setting": "EphA1; 0.1 μM", "result": -9.5, "unit": "%"}, {"measurement": "inhibition at 1 µM", "setting": "EphA1; 1 μM", "result": 19.6, "unit": "%"}, {"measurement": "inhibition at 0.1 µM", "setting": "MSK1 domain1; 0.1 μM", "result": -7, "unit": "%"}, {"measurement": "inhibition at 1 µM", "setting": "MSK1 domain1; 1 μM", "result": -30.4, "unit": "%"}, {"measurement": "inhibition at 0.1 µM", "setting": "MARK3; 0.1 μM", "result": 1, "unit": "%"}, {"measurement": "inhibition at 1 µM", "setting": "MARK3; 1 μM", "result": 29.1, "unit": "%"}, {"measurement": "inhibition at 0.1 µM", "setting": "FGR; 0.1 μM", "result": 12.9, "unit": "%"}, {"measurement": "inhibition at 1 µM", "setting": "FGR; 1 μM", "result": 4.6, "unit": "%"}, {"measurement": "inhibition at 0.1 µM", "setting": "CaMK2g; 0.1 μM", "result": -16.9, "unit": "%"}, {"measurement": "inhibition at 1 µM", "setting": "CaMK2g; 1 μM", "result": -15.5, "unit": "%"}, {"measurement": "percent inhibition", "setting": "NEK6, NEK7; 0.1 μM", "result": "−1.7", "unit": "%"}, {"measurement": "percent inhibition", "setting": "NEK6, NEK7; 1 μM", "result": "−17", "unit": "%"}, {"measurement": "inhibition at 0.1 µM", "setting": "JAK2 domain2; 0.1 μM", "result": 13.8, "unit": "%"}, {"measurement": "inhibition at 1 µM", "setting": "JAK2 domain2; 1 μM", "result": 16.7, "unit": "%"}, {"measurement": "percent inhibition", "setting": "p38d, p38g; 0.1 μM", "result": "−37.3", "unit": "%"}, {"measurement": "percent inhibition", "setting": "p38d, p38g; 1 μM", "result": "−24", "unit": "%"}, {"measurement": "percent inhibition", "setting": "AKT2, AKT3; 0.1 μM", "result": 1.6, "unit": "%"}, {"measurement": "percent inhibition", "setting": "AKT2, AKT3; 1 μM", "result": 10.7, "unit": "%"}, {"measurement": "inhibition at 0.1 µM", "setting": "Erk5; 0.1 μM", "result": -32.8, "unit": "%"}, {"measurement": "inhibition at 1 µM", "setting": "Erk5; 1 μM", "result": -41.9, "unit": "%"}, {"measurement": "inhibition at 0.1 µM", "setting": "ULK3; 0.1 μM", "result": -1.9, "unit": "%"}, {"measurement": "inhibition at 1 µM", "setting": "ULK3; 1 μM", "result": 8, "unit": "%"}, {"measurement": "inhibition at 0.1 µM", "setting": "GCN2; 0.1 μM", "result": 0.1, "unit": "%"}, {"measurement": "inhibition at 1 µM", "setting": "GCN2; 1 μM", "result": -25.1, "unit": "%"}, {"measurement": "inhibition at 0.1 µM", "setting": "SGK3; 0.1 μM", "result": 2.5, "unit": "%"}, {"measurement": "inhibition at 1 µM", "setting": "SGK3; 1 μM", "result": 9.9, "unit": "%"}, {"measurement": "inhibition at 0.1 µM", "setting": "STLK5; 0.1 μM", "result": -1.5, "unit": "%"}, {"measurement": "inhibition at 1 µM", "setting": "STLK5; 1 μM", "result": -46.5, "unit": "%"}, {"measurement": "percent inhibition", "setting": "AMPKa1, AMPKa2; 0.1 μM", "result": 10.8, "unit": "%"}, {"measurement": "percent inhibition", "setting": "AMPKa1, AMPKa2; 1 μM", "result": 49.7, "unit": "%"}, {"measurement": "inhibition at 0.1 µM", "setting": "GSK3A; 0.1 μM", "result": -0.2, "unit": "%"}, {"measurement": "inhibition at 1 µM", "setting": "GSK3A; 1 μM", "result": -11.4, "unit": "%"}, {"measurement": "inhibition at 0.1 µM", "setting": "PIK3CD; 0.1 μM", "result": -102, "unit": "%"}, {"measurement": "inhibition at 1 µM", "setting": "PIK3CD; 1 μM", "result": -65.4, "unit": "%"}, {"measurement": "inhibition at 0.1 µM", "setting": "MAST3; 0.1 μM", "result": 9, "unit": "%"}, {"measurement": "inhibition at 1 µM", "setting": "MAST3; 1 μM", "result": -6.7, "unit": "%"}, {"measurement": "inhibition at 0.1 µM", "setting": "PYK2; 0.1 μM", "result": 5.9, "unit": "%"}, {"measurement": "inhibition at 1 µM", "setting": "PYK2; 1 μM", "result": 19.5, "unit": "%"}]}
